Results published in patent publication US20040152745A1, “Dipeptidyl peptidase IV inhibitors and methods of making and using dipeptidyl peptidase IV inhibitors” (Guilford Pharmaceuticals, Inc., priority 1999, published 2004).

Tested on: organotypic spinal motor neurons
Test: organotypic spinal motor neuron / THA neuroprotection assay
Format: cell-based, Sprague-Dawley rat
Conditions: exposure of neurons with THA alone
Experimental: Each experiment consists of two 6-well plates with 5 slices from 4 different animals per well. Media changes are performed every 3 to 4 days. Cultures are treated with THA [L(−)-threo-3-hydroxyaspartic acid; Tocris Cookson Inc., Ballwin, Mo.] at 200 μM+compound (10 μM) after one week in culture. The control is an untreated sample with 0.1% DMSO as vehicle. The THA control is a THA treated sample with 0.1% DSMO as vehicle. Two wells are used per condition. One media change with new THA and compounds is performed. The experiment is stopped 6 to 8 days following drug treatment (13-15 total days in vitro, DIV) as dictated by visual assessment of lesion, by fixation with 4% paraformaldehyde/0.1 M phosphate buffer for 30 minutes. Slices are permeabilized with 100% cold methanol for 10 minutes. Slices are transferred to staining wells. […]
Quantification of surviving neurons is performed on a Ziess Axiovert microscope. Neuronal survival is determined by observing an intact neuronal cell body with processes located ventrally of the central canal in each hemisphere. […] Each hemisphere is counted individually. The statistics can be performed with StatView software on a minimum of three different experiments per condition and significance should be determined as compared to THA control. The percent of protection can be determined from the average number of living neurons by the following equation: […]

Compound: N[C@H](C(=O)O)[C@H](O)C(=O)O [THA, L(−)-threo-3-hydroxyaspartic acid]
- death of the neurons: 55-60%
